Test results from article PMC4627230, “Identification of TAX2 peptide as a new unpredicted anti-cancer agent” (Oncotarget, 2015).

How the values were obtained:
[1] = test system: immobilized TSP-1 (thrombospondin from human platelets); assay: ELISA binding of biotin-labeled peptides to immobilized TSP-1; conditions: biotin-labeled peptide 10 μg/mL, 3 h, room temperature, 0.5% BSA; absorbance 450 nm; n = 3 in triplicate
Description: Microtiter plates (Nunc, ThermoFisher Scientific, Courtaboeuf, France) were coated overnight at 4°C with 0.5 μg TSP-1 in sodium carbonate-bicarbonate (BupH) buffer (Thermo Fisher Scientific). Plates were washed with PBS 0.1% BSA (Sigma-Aldrich) and non-specific sites were saturated during 30 min using 1% (w/v) BSA in BupH buffer. Biotin-labeled peptide (10 μg/mL, determined after dose-response assay from 0.01 to 100 μg/mL) was added in buffer containing 0.5% (w/v) BSA and incubated for 3 h at room temperature. Non-labeled peptide (0.001 to 5 mg/mL) was used as selective competitor. Plates were washed with PBS containing 0.1% (w/v) BSA and treated for 30 min with mouse anti-biotin antibody. Bound antibody was quantified using the mouse IgG Elite Vectastain ABC kit (Vector Laboratories) followed by incubation with 1-Step Turbo TMB substrate as a chromogen (ThermoFisher Scientific). The reaction was stopped with 0.5 M H2SO4 and absorbance was read at 450 nm.

CD47 = conditions: ref [43]; cited from earlier work
Text: In addition to the putative effects that may be due to CD47 association with its co-receptors, TAX2-bound TSP-1 also remains able to bind a wide variety of ligands through the other domains of the multi-modular protein. Among these domains, a central region of TSP-1 called 3TSR (three TSP-1 type 1 repeats) binds to the CD36 membrane receptor, also leading to inhibition of angiogenesis. Indeed, CD36 ligation by TSP-1 is known to induce an anti-angiogenic response by promoting CD36 association with β1 integrin and VEGFR2 dimer in a tripartite complex, resulting in decreased VEGFR2 phosphorylatio ... || Figure 7 TAX2 induces a shift in TSP-1 binding from CD47 to CD36 A. In physiological conditions, most of TSP-1-related effects on vascular function are mediated by TSP-1 carboxy terminal domain interaction with CD47 receptor. B. Under TAX2 treatment preventing TSP-1:CD47 interaction, binding of the 3TSR module of TSP-1 to CD36 receptor is promoted, thus leading to an overall anti-angiogenic response (NTD, N-terminal domain; Col, procollagen-homology domain; CBD, carboxy terminal cell binding domain). TEXT PRINTED IN THE PICTURE: (A) TSP-1: CD36: 1-10 nM; CD47: 10-100 pM DOUBTS OF THE COPYIST A ...

Substance | binding to immobilized TSP-1 [1] | binding affinity for CD47 compared to CD36 (CD47)
LSVDESKAQGIL [scrambled peptide, scrambled dodecapeptide used as a control (…), reference compound] | does not | –
TSP-1: multimodular protein secreted as a disulfide-linked 450 kDa homotrimer | – | higher compared to CD36 binding
